Each substance was assayed on E. coli DH5α (assay: Induced growth curves of E. coli expressing peptide-PhoA fusions in the periplasm (periplasmic in vivo display)). Details: peptide expressed as PhoA fusion in the periplasm, arabinose induction, OD600.
Assay type: cell-based
Protocol: Numerous periplasmic screens have been performed for the identification of bacteriolytic peptides, encompassing more than 90 million clones. Selected clones have been sequenced and confirmed by induced growth curves, confirming that the disclosed bacteriolytic screen enriches plasmid preparations for peptides that elicit cell lysis. For example, an isolated clone is grown in fresh LB medium to early log phase. Arabinose is added to induced peptide-PhoA fusion expression, and the peptide's effect on growth is observed by measuring the cell density of the culture. Many clones of differing growth phenotypes were analyzed. Bacteriolytic peptides have predominated the extracted clones, which is to be expected given that the bacteriolytic screen was used. Peptides were recovered that had either a bacteriostatic or bactericidal effect and others that have a weakly inhibitory effect as they reduce the rate of E. coli's growth […] and may find use as precursors to actual peptide hits.
Phenotype definitions: Bacteriolytic: OD600 of culture decreases in value, correlating with a reduction in the concentration of cells. Bactriostatic/bactericidal: OD600 of culture flatlines, correlating with a complete stop in the growth of the cells and constant cell density. Weakly inhibitory OD600<0.7: Replication is slowed but not stopped. Final OD600 as culture enters stationary phase is less than 0.7. Weakly inhibitory OD600>0.7: Similar to the above, only final OD600 exceeds 0.7. Peptides have only a minor effect on growth. Non-inhibitory: No growth effect was observed versus the expression of PhoA with no peptide at its N-terminus.
After replica plating, clones were grown in LB+30 μg/ml kanamycin. When OD600˜0.15, arabinose was added to a final concentration of 0.2%. The OD600 of the culture was then measured every 30 minutes to see the effect of peptide-PhoA fusion expression on the cell. […]

Row | Substance | antimicrobial activity / growth phenotype after induction
1 | EOD037 Pro+: EOD037 in which an alanine was replaced with a proline (IRWLPRRWRRTF; Antimicrobial peptide EOD037Pro+) | loss of antimicrobial activity
2 | EOD037: inhibitory peptide from the early onset degenerate peptide library (IRWLARRWRRTF; Antimicrobial peptide EOD037) | inhibitory
3 | EOD084: non-inhibitory, proline-containing peptide from the early onset degenerate peptide library (FMRLPRWWRRMQ; Antimicrobial peptide EOD084) | non-inhibitory

Reference: US9580707B2, “Peptide antimicrobials” (Wayne State University, priority 2010, dated 2017)
